SMILES strings stand for the structures.

Sequence of human PAD4 (hPAD4) (Q9UM07 whole entry): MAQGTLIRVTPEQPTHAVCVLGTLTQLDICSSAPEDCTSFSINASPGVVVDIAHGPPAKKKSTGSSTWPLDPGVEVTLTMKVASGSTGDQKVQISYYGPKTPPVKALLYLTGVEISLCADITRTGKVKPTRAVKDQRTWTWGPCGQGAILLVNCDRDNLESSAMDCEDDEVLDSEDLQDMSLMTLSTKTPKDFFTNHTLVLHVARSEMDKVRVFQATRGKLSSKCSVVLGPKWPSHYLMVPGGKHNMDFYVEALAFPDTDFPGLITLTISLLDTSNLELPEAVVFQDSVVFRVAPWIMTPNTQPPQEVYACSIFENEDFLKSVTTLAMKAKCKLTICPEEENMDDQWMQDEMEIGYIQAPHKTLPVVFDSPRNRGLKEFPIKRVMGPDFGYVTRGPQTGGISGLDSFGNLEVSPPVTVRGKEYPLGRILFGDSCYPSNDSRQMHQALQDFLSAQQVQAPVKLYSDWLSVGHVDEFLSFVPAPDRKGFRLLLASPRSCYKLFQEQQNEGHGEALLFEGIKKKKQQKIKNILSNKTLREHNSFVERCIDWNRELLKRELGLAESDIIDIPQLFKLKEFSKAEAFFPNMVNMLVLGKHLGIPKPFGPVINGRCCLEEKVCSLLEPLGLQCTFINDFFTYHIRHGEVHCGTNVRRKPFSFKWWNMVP

The experiment has as its target human PAD4 (hPAD4) (Homo sapiens (Human), UniProt Q9UM07). Put plainly: RFMS Human PAD4 Functional Assay 1. In kind it is biochemical. The settings on record: RFMS assay 1; 5 nM hPAD4, 250 μM BAEE substrate, 50 μM calcium, 37° C. The essentials:
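Citrullination product read by RapidFire triple-quad MRM against a modified-citrulline internal standard, after TCA stop and 30 min phenyl glyoxal step at 37 °C. Reaction: 250 μM BAEE, 5 nM human PAD4, 90 min at 37 °C, pH 7.5 HEPES buffer with 50 μM calcium and 5 μM TPEN, following 30 min compound–enzyme preincubation (max 50 μM).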
Regarding `COc1cc(C(=O)N2C[C@H](N)C[C@@H](F)C2)cn2nc(-c3cc4cccc(OCCn5cncn5)c4n3CC3CC3)c(C)c12` [Example 556, (2-(7-(2-(1H-1,2,4-Triazol-1-yl)ethoxy)-1-(cyclopropylmethyl)-1H-indol-2-yl)-4-methoxy-3-methylpyrazolo[1,5-a]pyridin-6-yl)((3R,5R)-3-amino-5-fluoropiperidin-1-yl)methanone], the IC50 (commonly the point on the concentration scale where inhibition reaches its midpoint) came to 20 nM.

With `COc1cc(C(=O)N2C[C@H](N)C[C@@H](F)C2)cn2nc(-c3cc4cccc(OCCn5cc(N)cn5)c4n3CC3CC3)c(C)c12` [Example 557, (2-(7-(2-(4-Amino-1H-pyrazol-1-yl)ethoxy)-1-(cyclopropylmethyl)-1H-indol-2-yl)-4-methoxy-3-methylpyrazolo[1,5-a]pyridin-6-yl)((3R,5R)-3-amino-5-fluoropiperidin-1-yl)methanone], the IC50 was 10 nM.

On to `COc1cc(C(=O)N2CCC[C@@H](N)C2)cn2nc(-c3cc4cccc(OCCn5cc(N)cn5)c4n3CC3CC3)c(C)c12` [Example 558, (R)-(2-(7-(2-(4-Amino-1H-pyrazol-1-yl)ethoxy)-1-(cyclopropylmethyl)-1H-indol-2-yl)-4-methoxy-3-methylpyrazolo[1,5-a]pyridin-6-yl)(3-aminopiperidin-1-yl)methanone], for which the IC50 was 100 nM. Next, `COc1cc(C(=O)N2CCC[C@@H](N)C2)cn2nc(-c3cc4cccc(OC[C@@H]5CCC(=O)N5)c4n3CC3CC3)c(C)c12` [Example 559, (S)-5-(((2-(6-((R)-3-Aminopiperidine-1-carbonyl)-4-methoxy-3-methylpyrazolo[1,5-a]pyridin-2-yl)-1-(cyclopropylmethyl)-1H-indol-7-yl)oxy)methyl)pyrrolidin-2-one]: 80 nM. The same measure for `COc1cc(C(=O)N2C[C@H](N)C[C@@H](F)C2)cn2nc(-c3cc4cccc(OC[C@@H]5CCC(=O)N5)c4n3CC3CC3)c(C)c12` [Example 560, (S)-5-(((2-(6-((3R,5R)-3-Amino-5-fluoropiperidine-1-carbonyl)-4-methoxy-3-methylpyrazolo[1,5-a]pyridin-2-yl)-1-(cyclopropylmethyl)-1H-indol-7-yl)oxy)methyl)pyrrolidin-2-one]: 160 nM; for `COc1cc(C(=O)N2CCC[C@@H](N)C2)cn2nc(-c3cc4cccc(OC[C@H]5CCC(=O)N5)c4n3CC3CC3)c(C)c12` [Example 561, (R)-5-(((2-(6-((R)-3-Aminopiperidine-1-carbonyl)-4-methoxy-3-methylpyrazolo[1,5-a]pyridin-2-yl)-1-(cyclopropylmethyl)-1H-indol-7-yl)oxy)methyl)pyrrolidin-2-one]: 640 nM; for `Cc1c(-c2cc3cccc(OC[C@@H]4CCC(=O)N4)c3n2CC2CC2)nn2cc(C(=O)N3C[C@H](N)C[C@@H](F)C3)cc(F)c12` [Example 568, (S)-5-(((2-(6-((3R,5R)-3-Amino-5-fluoropiperidine-1-carbonyl)-4-fluoro-3-methylpyrazolo[1,5-a]pyridin-2-yl)-1-(cyclopropylmethyl)-1H-indol-7-yl)oxy)methyl)pyrrolidin-2-one]: 60 nM. The same measure for `Cc1c(-c2cc3cccc(OC[C@@H]4CCC(=O)N4)c3n2CC2CC2)nn2cc(C(=O)N3CCC[C@@H](N)C3)cc(F)c12` [Example 569, (S)-5-(((2-(6-((R)-3-Aminopiperidine-1-carbonyl)-4-fluoro-3-methylpyrazolo[1,5-a]pyridin-2-yl)-1-(cyclopropylmethyl)-1H-indol-7-yl)oxy)methyl)pyrrolidin-2-one]: 20 nM; for `Cc1c(-c2cc3cccc(OC[C@H]4CCC(=O)N4)c3n2CC2CC2)nn2cc(C(=O)N3CCC[C@@H](N)C3)cc(F)c12` [Example 570, (R)-5-(((2-(6-((R)-3-Aminopiperidine-1-carbonyl)-4-fluoro-3-methylpyrazolo[1,5-a]pyridin-2-yl)-1-(cyclopropylmethyl)-1H-indol-7-yl)oxy)methyl)pyrrolidin-2-one]: 180 nM.
